Assays:
[1] = target: T1, unphosphorylated VEGF-R2Δ50 (FLVK) (Homo sapiens, UniProt P35968, DEL940-989/E990V); test: VEGF-R2 coupled spectrophotometric assay, unphosphorylated construct (FLVK); format: biochemical; settings: for inhibition at 0.05 µM: percent inhibition at 50 nM
T1 construct: VEGF-R2Δ50 contains residues 806-939 and 990-1171; made in house; host or cells: baculovirus/insect cell system
From the text: This construct determines the ability of a test compound to inhibit tyrosine kinase activity. A construct (VEGF-R2Δ50) of the cytosolic domain of human vascular endothelial growth factor receptor 2 (VEGF-R2) lacking the 50 central residues of the 68 residues of the kinase insert domain was expressed in a baculovirus/insect cell system. Of the 1356 residues of full-length VEGF-R2, VEGF-R2Δ50 contains residues 806-939 and 990-1171, and also one point mutation (E990V) within the kinase insert domain relative to wild-type VEGF-R2. Autophosphorylation of the purified construct was performed by incubation of the enzyme at a concentration of 4 μM in the presence of 3 mM ATP and 40 mM MgCl2 in 100 mM HEPES, pH 7.5, containing 5% glycerol and 5 mM DTT, at 4° C. for 2 h. […] See Parast et al., Biochemistry, 37, 16788-16801 (1998).
The production of ADP from ATP that accompanies phosphoryl transfer was coupled to oxidation of NADH using phosphoenolpyruvate (PEP) and a system having pyruvate kinase (PK) and lactic dehydrogenase (LDH). The oxidation of NADH was monitored by following the decrease of absorbance at 340 nm ([…]=6.22 cm^−1 mM^−1) using a Beckman DU 650 spectrophotometer. Assay conditions for phosphorylated VEGF-R2Δ50 (indicated as FLVK-P in the tables below) were the following: 1 mM PEP; 250 μM NADH; 50 units of LDH/mL; 20 units of PK/mL; 5 mM DTT; […]; 1 mM ATP; and 25 mM MgCl2 in 200 mM HEPES, pH 7.5. Assay conditions for unphosphorylated VEGF-R2Δ50 (indicated as FLVK in the tables) were the following: 1 mM PEP; 250 μM NADH; 50 units of LDH/mL; 20 units of PK/mL; 5 mM DTT; […]; 3 mM ATP; and 60 mM MgCl2 and 2 mM MnCl2 in 200 mM HEPES, pH 7.5. Assays were initiated with 5 to 40 nM of enzyme. Ki values were determined by measuring enzyme activity in the presence of varying concentrations of test compounds. The percent inhibition at 50 nm (% inhibition@ 50 nm) was determined by linear least-squares regression analysis of absorbance as a function of time. The binding inhibitions were fitted to equation as described by Morrison. The data were analyzed using Enzyme Kinetic and Kaleidagraph software.

Mouse PK assay = format: in vivo, B6 female mice; settings: po
Description: The pharmacokinetics (e.g., absorption and elimination) of drugs in mice were analyzed using the following experiment. Test compounds were formulated as a suspension in a 30:70 (PEG 400: acidified H2O) vehicle. This solution was administered orally (p.o.) and intraperitoneally (i.p.) at 50 mg/kg to two distinct groups (n=4) of B6 female mice. Blood samples were collected via an orbital bleed at time points: 0 hour (pre-dose), 0.5 hr, 1.0 hr, 2.0 hr, and 4.0 hr post dose. Plasma was obtained from each sample by centrifugation at 2500 rpm for 5 min. Test compound was extracted from the plasma by an organic protein precipitation method. For each time bleed, 50 μL of plasma was combined with 1.0 mL of acetonitrile, vortexed for 2 min. and then spun at 4000 rpm for 15 min. to precipitate the protein and extract out the test compound. Next, the acetonitrile supernatant (the extract containing test compound) was poured into new test tubes and evaporated on a hot plate (25° C.) under a steam of N2 gas. To each tube containing the dried test compound extract, 125 μL of mobile phase (60:40, 0.025 M NH4H2PO4+2.5 mL/L TEA:acetonitrile) was added. The test compound was resuspended in the mobile phase by vortexing and more protein was removed by centrifugation at 4000 rpm for 5 min. Each sample was poured into an HPLC vial for test compound analysis on an Hewlett Packard 1100 series HPLC with UV detection. From each sample, 95 μL was injected onto a Phenomenex-Prodigy reverse phase C-18, 150×3.2 mm column and eluted with a 45-50% acetonitrile gradient run over 10 min. Test-compound plasma concentrations (μg/mL) were determined by a comparison to standard curve (peak area vs. conc. μg/mL) using known concentrations of test compound extracted from plasma samples in the manner described above. Along with the standards and unknowns, three groups (n=4) of quality controls (0.25 μg/mL, 1.5 μg/mL, and 7.5 μg/mL) were run to insure the consistency of the analysis. […] The quantitated test samples were plotted for visual display using Kaleidagraph software and their pharmacokinetic parameters were determined using WIN NONLIN software.

PDGFRβ = target: T2, PDGFRβ (Homo sapiens, UniProt P09619); test: PAE-PDGFRβ phosphorylation in PAE-PDGFRB cells assay; format: cell-based; settings: PAE cells overexpressing human PDGFRβ, PDGF-BB stimulated; read-out: PAE PDGFR autophos IC50
T2 construct: expressed in transfected cells; host or cells: porcine aorta endothelial (PAE) cells
Description: This assay determines the ability of a test compound to inhibit the autophosphorylation of PDGFRβ in porcine aorta endothelial (PAE)-PDGFRβ cells. PAE cells that overexpress human PDGFRβ were used in this assay. The cells were cultured in Ham's F12 media supplemented with 10% fetal bovine serum (FBS) and 400 ug/ml G418. Twenty thousands cells were seeded in each well of a 96-well plate in 50 μL of growth media and allowed to attach for 6 hours at 37° C. Cells were then exposed to the starvation media (Ham's F12 media supplemented with 0.1% FBS) for 16 hours. After the starvation period was over, 10 μL of test agent in 5% DMSO in starvation media were added to the test wells and 10 μL of the vehicle (5% DMSO in starvation media) were added into the control wells. The final DMSO concentration in each well was 0.5%. Plates were incubated at 37° C. for 1 hour and the cells were then stimulated with 1 μg/mL PDGF-BB (R & D System) in the presence of 2 mM Na3VO4 for 8 minutes. The cells were washed once with 1 mm Na3VO4 in HBSS and lysed by adding 50 μL per well of lysis buffer. One hundred μL of dilution buffer were then added to each well and the diluted cell lysate was transferred to a 96-well goat ant-rabbit coated plate (Pierce), which was pre-coated with Rabbit anti Human PDGFRβ antibody (Santa Cruz). The plates were incubated at room temperature for 2 hours and washed seven times with 1% Tween 20 in PBS. HRP-PY20 (Santa Cruz) was diluted and added to the plate for a 30-minute incubation. Plates were then washed again and TMB peroxidase substrate (Kirkegaard & Perry) was added for a 10-minute incubation. One hundred μL of 0.09 N H2SO4 was added into each well of the 96-well plate to stop the reaction. Phosphorylation status was assessed by spectrophotometer reading at 450 nm. IC50 values were calculated by curve fitting using a four-parameter analysis.

T2 sequence (P09619 33-1106): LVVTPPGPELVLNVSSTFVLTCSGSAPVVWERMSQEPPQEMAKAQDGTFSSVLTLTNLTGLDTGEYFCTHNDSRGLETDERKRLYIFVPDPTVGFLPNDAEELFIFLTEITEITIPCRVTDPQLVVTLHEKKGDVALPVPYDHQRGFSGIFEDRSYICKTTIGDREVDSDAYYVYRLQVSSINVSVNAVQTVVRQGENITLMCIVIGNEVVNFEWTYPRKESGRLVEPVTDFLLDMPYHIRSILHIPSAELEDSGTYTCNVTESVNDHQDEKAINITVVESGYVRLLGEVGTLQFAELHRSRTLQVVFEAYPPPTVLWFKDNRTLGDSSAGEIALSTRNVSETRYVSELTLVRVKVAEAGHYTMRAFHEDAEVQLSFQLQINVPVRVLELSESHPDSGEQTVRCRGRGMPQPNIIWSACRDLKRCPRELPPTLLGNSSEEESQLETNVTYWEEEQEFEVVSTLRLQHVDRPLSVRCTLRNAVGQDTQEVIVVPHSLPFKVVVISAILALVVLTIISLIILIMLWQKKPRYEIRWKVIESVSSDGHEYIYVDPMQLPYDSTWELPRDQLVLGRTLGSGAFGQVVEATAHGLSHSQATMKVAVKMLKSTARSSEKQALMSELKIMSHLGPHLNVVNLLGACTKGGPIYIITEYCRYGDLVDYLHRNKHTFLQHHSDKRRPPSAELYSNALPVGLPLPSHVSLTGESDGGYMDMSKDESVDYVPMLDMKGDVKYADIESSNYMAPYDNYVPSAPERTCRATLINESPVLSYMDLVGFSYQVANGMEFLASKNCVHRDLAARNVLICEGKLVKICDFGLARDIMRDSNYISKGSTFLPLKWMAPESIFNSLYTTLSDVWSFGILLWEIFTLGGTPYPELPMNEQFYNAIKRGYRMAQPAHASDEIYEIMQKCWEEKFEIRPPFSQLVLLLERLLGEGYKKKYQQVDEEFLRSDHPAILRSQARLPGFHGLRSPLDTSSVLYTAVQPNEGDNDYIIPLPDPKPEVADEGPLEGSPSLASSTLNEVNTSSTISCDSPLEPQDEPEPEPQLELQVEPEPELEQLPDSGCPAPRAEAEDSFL
T1 sequence (P35968 with tags, fused parts or gaps DEL940-989/E990V limits assumed): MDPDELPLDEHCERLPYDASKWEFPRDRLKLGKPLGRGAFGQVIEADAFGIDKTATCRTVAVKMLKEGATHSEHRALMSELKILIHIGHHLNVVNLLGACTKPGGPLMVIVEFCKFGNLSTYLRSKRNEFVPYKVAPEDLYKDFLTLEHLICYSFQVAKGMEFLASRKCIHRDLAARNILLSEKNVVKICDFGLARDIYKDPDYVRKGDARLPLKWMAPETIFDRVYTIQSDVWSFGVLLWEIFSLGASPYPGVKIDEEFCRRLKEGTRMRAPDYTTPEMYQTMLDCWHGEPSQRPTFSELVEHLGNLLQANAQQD

Row | Ki [1] | inhibition at 0.05 µM [1] | Mouse Cmin, po (Mouse PK assay) | IC50 (PDGFRβ) | AUC (Mouse PK assay; female, B6, mouse, plasma, 50 mg/kg) | Cmax (Mouse PK assay; female, B6, mouse, plasma, 50 mg/kg, p.o., 50 mg/kg, read-out: Mouse Cmax, po ng-h/mL) | SMILES
1 | 0.148 nM | 99% | 16470 ng/mL | – | – | – | C#CCNC(=O)n1c(C)cc2c(F)c(Oc3ccnc4cc(C(=O)N5CCC(O)C5)sc34)ccc21 (stereo in doubt) [Example 5k, 4-Fluoro-5-[2-(3R-hydroxy-pyrrolidine-1-carbonyl)-thieno[3,2-b]pyridin-7-yloxy]-2-methyl-indole-1-carboxylic acid prop-2-ynylamide]
2 | 1.23 nM | 94% | – | 57.7 nM | – | – | C#CCNC(=O)n1c(C)cc2cc(Nc3ccnc4cc(C(=O)N5CC[C@H](OC)C5)sc34)ccc21 [Example 1h, 5-[2-(3S-Methoxy-pyrrolidine-1-carbonyl)-thieno[3,2-b]pyridin-7-ylamino]-2-methyl-indole-1-carboxylic acid prop-2-ynylamide]
3 | 0.2 nM | 83% | – | 2.48 nM | – | – | CNC(=O)n1c(C)cc2cc(Oc3ccnc4cc(-c5nc(CO)cs5)sc34)ccc21 [Example 3m]
4 | 24 nM | 10% | 11 ng/mL | – | 383 ng·h/mL | 265 ng/mL | COC[C@H]1CCCN1C(=O)c1cc2nccc(Oc3ccc4[nH]c(C)c(C(=O)NC5CC5)c4c3)c2s1 [Example 4y, 5-[2-(2R-Methoxymethyl-pyrrolidine-1-carbonyl)-thieno[3,2-b]pyridin-7-yloxy]-2-methyl-1H-indole-3-carboxylic acid cyclopropylamide]
5 | 0.09 nM | 99% | – | 3.65 nM | – | – | C#CCNC(=O)n1c(C)cc2c(F)c(Oc3ccnc4cc(C(=O)N5CC[C@@H](OC)C5)sc34)ccc21 [Example 5o, 4-Fluoro-5-[2-((R)-3-methoxy-pyrrolidine-1-carbonyl)-thieno[3,2-b]pyridin-7-yloxy]-2-methyl-indole-1-carboxylic acid prop-2-ynylamide]
6 | 0.406 nM | 95% | – | > 1000 nM | – | – | CNC(=O)n1c(C)cc2cc(Nc3ccnc4cc(C(=O)N5CC(F)[C@H](O)C5)sc34)ccc21 (stereo partly drawn) [Example 7b, 5-[(2-{[(4R)-3-Fluoro-4-hydroxypyrrolidin-1-yl]carbonyl}thieno[3,2-b]pyridin-7-yl)amino]-N,2-dimethyl-1H-indole-1-carboxamide]
7 | 4.55 nM | 68% | – | > 1000 nM | – | – | CNC(=O)c1c(C)n(C(=O)NC)c2ccc(Oc3ccnc4cc(C(=O)N5CC[C@@H](N(C)C)C5)sc34)cc12 [Example 8a, 5-[(2-{[(3R)-3-(Dimethylamino)pyrrolidin-1-yl]carbonyl}thieno[3,2-b]pyridin-7-yl)oxy]-N,N′,2-trimethyl-1H-indole-1,3-dicarboxamide]
8 | 28.8 nM | 18% | – | – | – | – | CNC(=O)n1c(C)cc2cc(Nc3ncnc4cc(C(=O)N5CCC[C@H]5COC)sc34)ccc21 [Example 11b, 5-[6-(2-Methoxymethyl-pyrrolidine-1-carbonyl)-thieno[3,2-b]pyrimidin-4-ylamino]-2-methyl-indole-1-carboxylic acid methylamide]
9 | 240 nM | 0% | – | – | – | – | CCOC(=O)c1cc2c(Nc3ccc4c(c3)cc(C)n4C(=O)NC)ncnc2s1 [Example 12a, 4-(2-Methyl-1-methylcarbamoyl-1H-indol-5-ylamino)-thieno[2,3-b]pyrimidine-6-carboxylic acid ethyl ester]
10 | 141 nM | 5% | – | > 1000 nM | – | – | CNC(=O)n1c(C)cc2cc(Nc3ncnc4sc(C(=O)N5CCC[C@H]5COC)cc34)ccc21 [Example 12b, 5-[6-(2-Methoxymethyl-pyrrolidine-1-carbonyl)-thieno[2,3-b]pyrimidin-4-ylamino]-2-methyl-indole-1-carboxylic acid methylamide]
11 | 34.3 nM | 14% | – | – | – | – | CCOC(=O)c1cc2c(Oc3ccc4c(c3)cc(C)n4C(=O)NC)ncnc2s1 [Example 12c, 4-(2-Methyl-1-methylcarbamoyl-1H-indol-5-yloxy)-thieno[2,3-b]pyrimidine-6-carboxylic acid ethyl ester]
